Results on twelve compounds are retold here after patent US11420910B2, “Methods for low temperature fluorine-18 radiolabeling of biomolecules” (KATHOLIEKE UNIVERSITEIT LEUVEN, priority 2014, dated 2022).

Values joined by “and” are separate entries in the source; they are usually repeats but may differ in a detail not shown here. Equal values may be shown once. “Also recorded” adds a separate entry of the source.

A short description of data set [1]: Stability tests of Al18F-complexes in PBS (0.1 M, pH 7) at 37° C., Example 26. In kind it is physicochemical. As to conditions: PBS 0.1 M pH 7, 37° C. As for the experimental part:
(§1) 400 μl of each purified [Al^18F]-complex solution was added to 1 mL of PBS and/or 1 mL of rat serum. […] Finally the supernatant was analysed using iTLC-SG.

Data set [2] in a line: Stability tests of Al18F-complexes in rat serum at 37° C., Example 26. In kind it is in vitro ADME. As for the experimental part:
as §1

Data set [3] can be described thus: Stability tests in PBS (0.1 M, pH 7.4) at 37° C., Examples 29 and 33. In kind it is physicochemical. As to conditions: for % intact tracer: PBS 0.1M pH 7.4, 37° C.; for stability in PBS (in words): 37° C.
Experimental: (§4) These mixtures were incubated at 37° C. and analysed by iTLC-SG at 10, 30, 60, 120, 180 and 240 min after the start of the incubation (N=3). Serum samples were denatured by addition of 50 μl of the serum solution to 50 μl of acetonitrile. The mixture was stirred and centrifuged (1300 g, 3 min). Finally the supernatant was analysed using iTLC-SG.
The nature of data set [4]: Biodistribution of Al18F-complexes and {Al18F}2+ in healthy male NMRI mice. In kind it is in vivo. The note with it: for uptake in blood / uptake in bone / uptake in intestines / uptake in kidneys / uptake in liver / uptake in urinary bladder: NMRI mice, tail vein. The procedure: (§2) Quantification of radioactivity during biodistribution studies was performed using an automated gamma counter equipped with a 3-inch NaI(TI) well crystal coupled to a multichannel analyzer, mounted in a sample changer (Perkin Elmer 1480 Wizard 3q). Counts were corrected for background radiation, physical decay and counter dead time.
(§3) The biodistribution of the [Al^18F]-L3 complex and {Al^18F}^2+ was determined in healthy male Naval Medical Research Institute (NMRI) mice (body weight: 30-40 g) at 10 and 60 min post injection (p.i.) (n=4/time point). Mice were injected with the [Al^18F]-L3 complex (about 1 MBq) or {Al^18F}^2+ (5.55 MBq) via a tail vein under anesthesia (2.5% isoflurane in O2 at 1 L/min flow rate) and sacrificed by decapitation at above specified time points. Blood and major organs were collected in tared tubes and weighed. The radioactivity in blood, organs and other body parts was counted using an automated γ-counter. For the calculation of total radioactivity in blood, bone and muscle, masses were assumed to be, respectively, 7, 12 and 40% of the total body mass.^20, 21
Quantification of radioactivity during biodistribution studies was performed using an automated gamma counter equipped with a 3-inch Nai(TI) well crystal coupled to a multichannel analyzer, mounted in a sample changer (Perkin Elmer 1480 Wizard 3q). Counts were corrected for background radiation, physical decay and counter dead time.
as §3, with “[Al^18F]-L26” for “[Al^18F]-L3”, “(n=3/time point for 10 min p.i. and n=4/time point for 60 min p.i.).” for “(n=4/time point).”, “mass.^20,21” for “mass.^20, 21”

Data set [5] is described as follows: Stability tests of Al18F-complexes in different buffers ranging from pH 2 to 8 (room temperature, iTLC-SG). The class given is physicochemical. As to conditions: buffers pH 2 to 8, room temperature, 30 and 60 min. The procedure:
200 μl of the purified Al^18F-L3 solution was added to 1 mL of sodium phosphate buffer (0.1 M, pH 2), sodium phosphate buffer (0.1 M, pH 3), sodium acetate buffer (0.1 M, pH 4), sodium acetate buffer (0.1 M, pH 5), sodium acetate buffer (0.1 M, pH 6), PBS buffer (0.1 M, pH 7) or Tris-HCl buffer (0.1 M, pH 8). These mixtures were incubated at room temperature and analyzed by iTLC-SG at 30 and 60 min after the start of the incubation.
200 μl of the purified Al^18F-L26 solution was added to 1 mL of sodium phosphate buffer (0.1 M, pH 2), sodium phosphate buffer (0.1 M, pH 3), sodium acetate buffer (0.1 M, pH 4), sodium acetate buffer (0.1 M, pH 5), sodium acetate buffer (0.1 M, pH 6), PBS buffer (0.1 M, pH 7) or Tris-HCl buffer (0.1 M, pH 8). These mixtures were incubated at room temperature and analyzed by iTLC-SG at 30 and 60 min after the start of the incubation.

Data set [6] is described as follows: Stability tests in rat serum at 37° C., Examples 29 and 33.
Experimental: as §4
The target in another data set is T1, PSMA (Mus musculus, UniProt O35409).
T1 construct: organs with reported high expression of PSMA such as kidney; from tissue; host or cells: living mice; kidney, spleen and other organs counted ex vivo
The experiment in a line: Biodistribution of PSMA tracers in mice with or without coadministration of 2-PMPA. In kind it is in vivo. The procedure:
The compounds ^68Ga-HBED-CC-PSMA, Al^18F-L6-PSMA, Al^18F-L27-PSMA or Al^18F-NODA-MPAA-PSMA were injected via the tail vain (1-2 MBq) with or without coadministration of 2 mg/kg 2-PMPA. At 10 min or 60 min p.i. (N=4), the animals were sacrificed. Blood and major organs were collected in tarred tubes and weighed. The radioactivity was measured using an automated γ-counter and calculated as % ID and % ID/g.
as §2

T1 sequence (O35409 whole entry): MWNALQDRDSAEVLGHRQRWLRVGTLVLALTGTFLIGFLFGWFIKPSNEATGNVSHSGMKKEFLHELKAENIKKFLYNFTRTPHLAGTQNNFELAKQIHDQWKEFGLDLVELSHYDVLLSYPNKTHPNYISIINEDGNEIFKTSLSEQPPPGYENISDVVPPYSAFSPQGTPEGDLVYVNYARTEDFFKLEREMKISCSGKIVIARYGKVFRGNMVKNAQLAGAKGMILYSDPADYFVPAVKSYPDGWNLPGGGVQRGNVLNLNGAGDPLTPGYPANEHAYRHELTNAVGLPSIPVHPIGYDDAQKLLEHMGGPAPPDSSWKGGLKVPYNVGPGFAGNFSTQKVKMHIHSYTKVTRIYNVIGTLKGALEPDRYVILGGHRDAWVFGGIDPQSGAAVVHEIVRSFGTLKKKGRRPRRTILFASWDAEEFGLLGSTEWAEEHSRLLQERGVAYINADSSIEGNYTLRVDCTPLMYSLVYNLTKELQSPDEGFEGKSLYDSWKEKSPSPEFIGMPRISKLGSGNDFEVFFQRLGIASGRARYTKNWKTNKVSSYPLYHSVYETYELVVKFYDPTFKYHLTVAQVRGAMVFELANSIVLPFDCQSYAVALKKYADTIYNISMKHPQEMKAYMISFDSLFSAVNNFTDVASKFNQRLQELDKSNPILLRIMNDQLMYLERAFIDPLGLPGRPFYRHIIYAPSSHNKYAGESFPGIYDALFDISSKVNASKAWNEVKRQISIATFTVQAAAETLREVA

On to `O=C1CN2CCN(CCN(Cc3ccccc3)CC2)CC(=O)[O][Al]([18F])[O]1` [Al^18F-NODA-benzyl, reference compound], for which the RCP in data set [1] (60 min) was 99%; in data set [1] (120 min), 98%; in data set [1] (240 min), 88%; in data set [2] (60 min) it was 99%; in data set [2] (120 min) it was 97%; in data set [2] (240 min), 87%.
In the case of `O=C1CN2CC(=O)[O][Al-]([18F])([O]1)[O]C(=O)CN(Cc1ccccc1)c1ccccc12` [Al^18F-L32], the “% intact tracer” value in data set [3] (1 h) was found to be 0%. Besides, the “stability in PBS (in words)” value in data set [3] is “unstable”.
In data set [4] (10 min p.i.), `[18F][Al+2]` [{Al^18F}^2+, reference compound] returned an uptake in blood of 5.0 % ID, an uptake in bone of 60 % ID, an uptake in intestines of 4.22 % ID and an uptake in kidneys of 2.2 % ID. Further, in data set [4] (10 min p.i.), the uptake in liver is 3.71 % ID and the “uptake in urinary bladder” value was determined as 20.7 % ID. In addition, in data set [4] (60 min p.i.), the uptake in blood is given as 0.6 % ID; the uptake in bone is 83 % ID and 83.3 % ID; the uptake in intestines is on record as 1.91 % ID; the uptake in kidneys turned out to be 0.5 % ID. For the same compound, in data set [4] (60 min p.i.), the uptake in liver is on record as 0.55 % ID and the “uptake in urinary bladder” value is 30.6 % ID.
Take `O=C1CN(Cc2ccccc2)CCN2CC(=O)[O][Al-]([18F])([O]1)[O]c1ccc([N+](=O)[O-])cc1C2` (stereo not shown) [Al^18F-L5]: in data set [1], the “stability in PBS (in words)” value was “comparable to that of Al^18F-NODA-benzyl up to 60 minutes”. The RCP in data set [1] (120 min) is 78%; in data set [1] (240 min), 65%; in data set [2] (240 min), 39%. Further, in data set [2], the “stability in rat serum (in words)” value was “good stability in rat serum”.
With `O=C1CN2CC(=O)[O][Al-]([18F])([O]1)[O]C(=O)CN(Cc1ccccc1)C1CC=CCC12` (stereo not shown) [Al^18F-L30], in data set [3], the “stability in PBS (in words)” value is recorded as “only moderate stability”.
Take `O=C1CN2CC(=O)[O][Al-]([18F])([O]1)[O]C(=O)CN(Cc1ccccc1)[C@@H]1CCCC[C@H]12` (racemic) [Al^18F-L26]: the “stability at different pH (in words)” value in data set [5] was “stable for at least 60 min in the pH range from 2 to 8”. Further, the “% intact tracer” value in data set [3] (10 min) worked out at 99.1%; in data set [3] (30 min) it was 98.0%; in data set [3] (1 h), 97.8%; in data set [3] (2 h), 91.0%; in data set [3] (3 h), 95.3%; in data set [3] (4 h) it was 87.3%. For the same compound, the “% intact tracer” value was 97.2% in data set [6] (10 min); 99.0% in data set [6] (30 min); 98±2.3% and 97.3% in data set [6] (1 h); 86.7% in data set [6] (2 h); 91.6% in data set [6] (3 h); 91±2.4% and 91.2% in data set [6] (4 h). In addition, the “stability in PBS (in words)” value in data set [3] is “excellent stability; also recorded: stability comparable to that of the previously reported Al^18F-NODA”. For the same compound, the uptake in blood was 2.0 % ID and 1.9 % ID in data set [4] (10 min p.i.); 0.1 % ID in data set [4] (60 min p.i.). Moreover, the uptake in bone amounted to 1.6 % ID in data set [4] (10 min p.i.) and 1.9 % ID in data set [4] (60 min p.i.). Besides, the uptake in intestines in data set [4] (10 min p.i.) was found to be 19.6 % ID; in data set [4] (60 min p.i.) it was 62.7 % ID. Also, the uptake in kidneys in data set [4] (10 min p.i.) is given as 4.6 % ID; in data set [4] (60 min p.i.) it was 0.2 % ID. Moreover, the uptake in liver in data set [4] (10 min p.i.) turned out to be 49.5 % ID; in data set [4] (60 min p.i.), 8.8 % ID. Moreover, the results for the “uptake in urinary bladder” value in data set [4] (10 min p.i.) and in data set [4] (60 min p.i.) were 14.3 % ID and 21.5 % ID, respectively. The “route of clearance (in words)” value in data set [4] (mice, 60 min p.i.) is “hepatobiliary clearance”. In addition, the “in vivo stability judged from bone uptake (in words)” value in data set [4] (mice, biodistribution) is on record as “high stability”. For the same compound, the “stability in rat serum (in words)” value in data set [6] is recorded as “excellent stability; also recorded: stability comparable to that of the previously reported Al^18F-NODA”.
Consider `O=C([O-])CN(CCN(CC(=O)[O-])Cc1cc(CCC(=O)NCCCCCC(=O)NCCCC[C@H](NC(=O)N[C@@H](CCC(=O)O)C(=O)O)C(=O)O)ccc1[O-])Cc1cc(CCC(=O)O)ccc1[O-].[68Ga+3].[OH3+]` [^68Ga-HBED-CC-PSMA], for which, on PSMA, the “affinity for the PSMA receptor indicated by spleen and kidney uptake (in words)” value is reported as “high affinity for the PSMA receptor”; the “in vivo stability judged from bone uptake (in words)” value is given as “high in vivo stability”. For the same compound, the “kidney and spleen retention when 2-PMPA was coinjected (in words)” value on PSMA (60 min p.i., 2 mg/kg 2-PMPA) is listed as “nearly completely blocked”. Also, on PSMA (60 min p.i., without 2-PMPA), the retention in kidney is given as 269.90±47.23 % ID/g and the retention in spleen was 2.72±0.42 % ID/g. Moreover, the bone uptake at PSMA (tail vein, time point not stated) is given as 0.39±0.09 % ID/g.
Consider `O=C1CN2CC(=O)[O][Al-]([18F])([O]1)[O]C(=O)CN(Cc1ccccc1)C1CCCC12` (stereo not shown) [Al^18F-L31], for which the “% intact tracer” value in data set [3] (1 h) came to 0%. The “stability in PBS (in words)” value in data set [3] is recorded as “unstable”.
Regarding `O=C1CN(Cc2ccccc2)CCN2CC(=O)[O][Al-]([18F])([O]1)[O]c1ccc(F)cc1C2` (stereo not shown) [Al^18F-L4], in data set [1], the “stability in PBS (in words)” value was “comparable to that of Al^18F-NODA-benzyl up to 60 minutes”. The figures for the RCP in data set [1] (120 min), in data set [1] (240 min) and in data set [2] (240 min) were 85%, 74% and 41%, respectively. In addition, in data set [2], the “stability in rat serum (in words)” value is reported as “good stability in rat serum”.
For the compound `O=C1CN(Cc2ccccc2)CCN(Cc2ccccn2)CC(=O)[O][Al]([18F])[O]1` [Al^18F-L7], in data set [1], the “stability in PBS (in words)” value is “do not seem to be stable”.
`O=C1CN2CCN(Cc3ccccc3)CC(=O)[O][Al-]([18F])([O]1)[O]C(=O)C2` [Al^18F-L1]: the “stability in PBS (in words)” value in data set [1] is “do not seem to be stable”. The “stability in rat serum (in words)” value in data set [2] is recorded as “unstable in serum”. In data set [2] (120 min), this compound showed an RCP of 0%.
Turning to `O=C1CN(Cc2ccccc2O)CCN2CC(=O)[O][Al-]([18F])([O]1)[O]c1ccccc1C2` (stereo not shown) [Al^18F-L2], the “stability in PBS (in words)” value in data set [1] is “do not seem to be stable”. Also, the RCP in data set [1] (120 min) was 31%; in data set [2] (120 min) it was 0%. In addition, the “stability in rat serum (in words)” value in data set [2] is given as “unstable in serum”.
